≈ marks a conversion by molar mass, not a printed value.
Assays:
Test in all cases: ≥ marks a high value that may be exact or a test limit, other limits are often not marked, values filed in µg/mL are converted to µM
[1] = test system: Salmonella typhimurium
[2] = test system: Vibrio parahaemolyticus Vp+1
[3] = test system: Escherichia coli JCM 1649
[4] = test system: Aeromonas salmonicida NCIMB 1102
[5] = test system: Vibrio anguillarum NCIMB 829
[6] = test system: Staphylococcus aureus IAM 1011
[7] = test system: Photobacterium damselae subsp. piscicida Sp 9587
[8] = test system: Shewanella putrefaciens IAM 1509
[9] = test system: Bacillus subtilis IAM 1026
[10] = test system: Shigella dysenteriae
[11] = test system: Klebsiella pneumoniae
[12] = test system: Pseudomonas aeruginosa CMCCB 1010
[13] = test system: Candida albicans ATCC 90028
[14] = test system: Escherichia coli 37
[15] = test system: Enterobacter cloacae ATCC 13047
[16] = test system: Escherichia coli ATCC 25922
[17] = test system: Staphylococcus aureus ATCC 25923
[18] = test system: Candida albicans ATCC 2002
[19] = test system: Enterococcus faecalis ATCC 29212
[20] = test system: Pseudomonas aeruginosa
[21] = test system: Escherichia coli 117
[22] = test system: Candida parapsilosis ATCC 22019
[23] = test system: Pseudomonas aeruginosa ATCC 27853
[24] = test system: Staphylococcus aureus 10
[25] = test system: Klebsiella pneumoniae ATCC 700603
[26] = test system: Staphylococcus aureus 37
[27] = test system: Escherichia coli 170
[28] = test system: Klebsiella pneumoniae ST258
[29] = test system: Pseudomonas aeruginosa 3599
[30] = test system: Pseudomonas aeruginosa 5106
[31] = test system: Pseudomonas aeruginosa 4677
[32] = test system: Acinetobacter baumannii
[33] = test system: Enterobacter cloacae 2524
[34] = test system: Escherichia coli 5580
[35] = test system: Klebsiella pneumoniae 913
[36] = test system: Streptococcus pneumoniae ATCC 49619
[37] = test system: Escherichia coli 4530
[38] = test system: Escherichia coli ATCC 2592
[39] = test system: Staphylococcus aureus
[40] = test system: Micrococcus luteus ATCC 9341
[41] = test system: Candida albicans ATCC 36232
[42] = test system: Staphylococcus aureus ATCC 6538
[43] = test system: Pseudomonas aeruginosa ATCC 9027
[44] = test system: Proteus vulgaris ATCC 6380
[45] = test system: Staphylococcus aureus IFO 12732
[46] = test system: Bacillus subtilis IFO 3134
[47] = test system: Escherichia coli IFO 12734
[48] = test system: Pseudomonas aeruginosa IFO 12582
[49] = test system: Staphylococcus epidermidis
[50] = test system: Staphylococcus aureus A170

## CC[C@H](C)[C@H](NC(=O)[C@H](C)NC(=O)[C@H](Cc1cnc[nH]1)NC(=O)[C@@H](NC(=O)[C@@H](NC(=O)[C@H](Cc1cnc[nH]1)NC(=O)[C@H](Cc1cnc[nH]1)NC(=O)[C@@H](NC(=O)[C@@H](N)Cc1ccccc1)[C@@H](C)CC)[C@@H](C)CC)C(C)C)C(=O)NCC(=O)N[C@@H](CCCN=C(N)N)C(=O)N[C@@H](CC(C)C)C(=O)N[C@@H](Cc1ccccc1)C(N)=O [FIHHIVHAIGRLF]
[1]
  MIC: ≥ 32.1 µM
[2]
  MIC: ≥ 32.1 µM
[3]
  MIC: ≥ 32.1 µM
[4]
  MIC: 16 µM (≈ 25 µg/mL)
[5]
  MIC: ≥ 32.1 µM
[6]
  MIC: 2.01 µM (≈ 3.13 µg/mL)
[7]
  MIC: 8.01 µM (≈ 12.5 µg/mL)
[8]
  MIC: 4.01 µM (≈ 6.25 µg/mL)
[9]
  MIC: 8.01 µM (≈ 12.5 µg/mL)

## CC[C@H](C)[C@H](NC(=O)[C@@H](NC(=O)[C@@H]1CCCN1C(=O)[C@H](CC(C)C)NC(=O)[C@@H](N)Cc1ccccc1)[C@@H](C)CC)C(=O)NCC(=O)N[C@@H](CCCCN)C(=O)N[C@@H](CC(C)C)C(=O)N[C@@H](CC(C)C)C(=O)N[C@@H](CO)C(=O)NCC(=O)O [FLPIIGKLLSG]
[10]
  MIC: 4.32 µM (≈ 5 µg/mL)
[11]
  MIC: 69.1 µM (≈ 80 µg/mL)
[12]
  MIC: 17.3 µM (≈ 20 µg/mL)
[13]
  MIC: 17.3 µM (≈ 20 µg/mL)
[14]
  MIC: 17.3 µM (≈ 20 µg/mL)
[15]
  MIC: 2.16 µM (≈ 2.5 µg/mL)
[16]
  MIC: 4.32 µM (≈ 5 µg/mL)
[17]
  MIC: 2.16 µM (≈ 2.5 µg/mL)
[18]
  MIC: 8.64 µM (≈ 10 µg/mL)
[19]
  MIC: 17.3 µM (≈ 20 µg/mL)
[20]
  MIC: 8.64 µM (≈ 10 µg/mL)
[21]
  MIC: 4.32 µM (≈ 5 µg/mL)
[22]
  MIC: 4.32 µM (≈ 5 µg/mL)
[23]
  MIC: 34.6 µM (≈ 40 µg/mL)
[24]
  MIC: 8.64 µM (≈ 10 µg/mL)
[25]
  MIC: 8.64 µM (≈ 10 µg/mL)
[26]
  MIC: 4.32 µM (≈ 5 µg/mL)

## CC[C@H](C)[C@H](NC(=O)CN)C(=O)N[C@@H](CC(C)C)C(=O)N[C@@H](CCCCN)C(=O)N[C@H](C(=O)N[C@H](C(=O)N[C@@H](CCCCN)C(=O)N[C@@H](CO)C(=O)N[C@H](C(=O)N[C@@H](C)C(=O)N[C@@H](CO)C(=O)N[C@@H](CCCCN)C(=O)N[C@H](C(=O)N[C@@H](C)C(=O)N[C@@H](CC(N)=O)C(=O)N[C@H](C(=O)N[C@H](C(=O)N[C@@H](CCC(N)=O)C(=O)N[C@@H](CCCCN)C(=O)N[C@@H](CC(C)C)C(=O)N[C@@H](CCCCN)C(=O)N[C@@H](CCCN=C(N)N)C(=O)N[C@@H](CCCCN)C(=O)N[C@@H](C)C(=O)N[C@@H](CCCCN)C(=O)N[C@@H](CC(N)=O)C(=O)N[C@@H](C)C(=O)N[C@H](C(=O)O)C(C)C)C(C)C)[C@@H](C)O)C(C)C)[C@@H](C)CC)[C@@H](C)CC)[C@@H](C)O [GILKTIKSIASKVANTVQKLKRKAKNAV]
[27]
  MIC: 0.8 µM (≈ 2.41 µg/mL)
[28]
  MIC: 16.6 µM (≈ 50 µg/mL)
[29]
  MIC: ≥ 50 µM
[1]
  MIC: 2.23 µM (≈ 6.7 µg/mL)
[16]
  MIC: 1.6 µM (≈ 4.81 µg/mL)
[17]
  MIC: > 16.6 µM
[30]
  MIC: 12 µM (≈ 36.1 µg/mL)
[31]
  MIC: 6.2 µM (≈ 18.7 µg/mL)
[32]
  MIC: 3.1 µM (≈ 9.33 µg/mL)
[33]
  MIC: 3.1 µM (≈ 9.33 µg/mL)
[34]
  MIC: 1.6 µM (≈ 4.81 µg/mL)
[23]
  MIC: 8.31 µM (≈ 25 µg/mL)
[35]
  MIC: 3.1 µM (≈ 9.33 µg/mL)
[36]
  MIC: ≥ 50 µM
[37]
  MIC: 3.1 µM (≈ 9.33 µg/mL)

## CC[C@H](C)[C@H](NC(=O)[C@H](CCCCN)NC(=O)[C@@H]1CCCN1C(=O)[C@H](CC(C)C)NC(=O)[C@H](Cc1ccccc1)NC(=O)[C@H](CC(N)=O)NC(=O)[C@H](C)NC(=O)[C@H](C)NC(=O)[C@H](CC(C)C)NC(=O)CN)C(=O)N[C@@H](Cc1ccccc1)C(=O)N[C@@H](CS)C(=O)N[C@@H](CCCCN)C(=O)N[C@H](C(=O)N[C@H](C(=O)N[C@@H](CCCN=C(N)N)C(=O)N[C@@H](CCCCN)C(=O)N[C@@H](CS)C(N)=O)[C@@H](C)O)[C@@H](C)CC [GLAANFLPKIFCKITRKC]
[38]
  MIC: 12.4 µM (≈ 25 µg/mL)
[39]
  MIC: 49.4 µM (≈ 100 µg/mL)
[40]
  MIC: 6.18 µM (≈ 12.5 µg/mL)
[41]
  MIC: 12.4 µM (≈ 25 µg/mL)
[42]
  MIC: 12.4 µM (≈ 25 µg/mL)
[43]
  MIC: 6.18 µM (≈ 12.5 µg/mL)
[44]
  MIC: ≥ 49.4 µM

## CC[C@H](C)[C@H](NC(=O)[C@H](C)NC(=O)[C@@H]1CCCN1C(=O)[C@@H](NC(=O)[C@@H](NC(=O)[C@H](Cc1cnc[nH]1)NC(=O)[C@H](C)NC(=O)[C@H](C)NC(=O)[C@@H](NC(=O)[C@H](CCCCN)NC(=O)[C@H](C)NC(=O)[C@H](CC(C)C)NC(=O)[C@@H](NC(=O)CNC(=O)[C@H](Cc1ccccc1)NC(=O)[C@@H](N)CC(C)C)C(C)C)C(C)C)C(C)C)C(C)C)C(=O)N[C@@H](C)C(=O)N[C@@H](CCC(=O)O)C(=O)N[C@@H](Cc1cnc[nH]1)C(=O)N[C@@H](Cc1ccccc1)C(N)=O [LFGVLAKVAAHVVPAIAEHF]
[45]
  MIC: ≥ 64 µM
[46]
  MIC: ≥ 64 µM
[47]
  MIC: ≥ 64 µM
[48]
  MIC: ≥ 64 µM

## CC[C@H](C)[C@H](NC(=O)[C@H](C)NC(=O)[C@H](CC(C)C)NC(=O)[C@@H](N)CC(C)C)C(=O)N[C@H](C(=O)NCC(=O)N[C@@H](CC(N)=O)C(=O)N[C@@H](CC(C)C)C(=O)N[C@@H](CC(C)C)C(=O)N[C@@H](CCCCN)C(=O)N[C@@H](CO)C(=O)N[C@@H](CC(C)C)C(=O)N[C@@H](CC(C)C)C(=O)O)C(C)C [LLAIVGNLLKSLL]
[49]
  MIC: 7.32 µM (≈ 10 µg/mL)
[50]
  MIC: 7.32 µM (≈ 10 µg/mL)
